Holding throughout (type): physicochemical
A short description of series [1]: Flowability and handling of the crystals. Particulars: crystals in the form of plates.
Series [2] can be described thus: Storage stability of the crystalline form. Particulars: stored at ambient temperature.
Series [3] can be described thus: Temperature range of stability of the polymorph (DSC discussion). The note with it: form only stable above this temperature. Here is the method: DSC curves were recorded with a DSC 7 system (Perkin Elmer, Norwalk, Conn., USA) using the Pyris 2.0. software. Samples of approximately 2 mg were weighted into A1 pans with perforated cover. Dry nitrogen was used as purge gas. X-axis is the temperature in ° C., Y-axis gives dH/dT (endo up).
Form I is a crystalline form which melts at about 180° C. and is only stable at temperatures above 130° C.

For `C[C@@H](NCCCc1cccc(C(F)(F)F)c1)c1cccc2ccccc12.Cl`, the flowability characteristics entry in series [1] is given as “favourable flowability characteristics”.

As to `C[C@@H](NCCCc1cccc(C(F)(F)F)c1)c1cccc2ccccc12.Cl` [Form III of Cinacalcet hydrochloride], the stable when stored in series [2] is on record as ≥ 3 months.

Regarding `C[C@@H](NCCCc1cccc(C(F)(F)F)c1)c1cccc2ccccc12.Cl` [Form I], the “temperature at which the form is stable” value in series [3] is “above 130 °C”.

The values above are taken from US20090197970A1, “CRYSTALLINE FORM OF CINACALCET” (Sandoz AG, priority 2006, published 2009).
